Test results published in patent publication US10376520B2, “Methods for the treatment of cardiovascular disorders” (Galapagos NV, priority 2015, dated 2019).

Assays:
RA patients [1] = assay: Lipoprotein A (Lp(a)) level (Selectra autoanalyzer), Study 4; type: in vivo, human; settings: for LpA level, 4 weeks CFB: 4 weeks change from baseline
Experimental: Randomized double-blind, placebo-controlled add on study in subjects with active RA who have an inadequate response to MTX monotherapy, in combination with methotrexate, administered for 4 weeks in the treatment of subjects with active rheumatoid arthritis who have an inadequate response to methotrexate alone.
Compound 1 (dosed as a [Compound 1:HCl:3H2O]) capsules administered orally in 30 mg, 75 mg, 150 mg, or 300 mg doses per day for 4 weeks.
Lipoprotein A (Lp(a)) were measured on the Selectra autoanalyzer (Sopachem BV, 44-RI Straat 33, 4051 AP Ochten, The Netherlands). All assays were commercially available from DiaSys Diagnostic Systems GmbH, Alte Strasse 9, 65558 Holzheim, Germany.

RA patients [2] = assay: Disease Activity Score 28 (DAS28(CRP)), Study 1; type: in vivo, human
Excerpt: As used herein, the term ‘DAS28(CRP)’ refers to a clinical scoring ranging from 2.0 to 10.0 to measure the disease status at a given point in time, and thereby follow the progress and improvement of rheumatoid arthritis in a patient, and includes a 28 tender and swollen joint count, CRP measurement from blood analysis, and a general health assessment on a visual analog scale. A DAS28(CRP) value below 2.6 is indicative of remission, A DAS28(CRP) between 2.6 and 3.2 is indicative of low disease activity, between 3.2 and 5.1 is indicative of moderate disease activity, whereas a DAS28(CRP) above 5.1 is linked to high disease activity. (Wells et al., 2008)
Double-blind, placebo-controlled add on study in subjects with moderately to severely active RA who have an inadequate response to methotrexate (MTX) (oral or parenteral).
Compound 1 (dosed as a [Compound 1:HCl:3H2O]) is dosed for twelve weeks once daily (q.d.) (50 mg, 100 mg or 200 mg) or twice daily (b.i.d.) (25 mg, 50 mg or 100 mg); or placebo.
At Week 12, the subjects on placebo who have not achieved 20% improvement in swollen joint count (SJC66) and tender joint count (TJC68) are re-randomized automatically to receive Compound 1 (dosed as a [Compound 1:HCl:3H2O]) either at 100 mg q.d. or 50 mg b.i.d. doses in a blinded fashion; subjects on 50 mg q.d. who have not achieved 20% improvement in SJC66 and TJC68 will be assigned to 100 mg q.d. and subjects on 25 mg b.i.d. that have not achieved a 20% improvement in SJC66 and TJC68 will be assigned to 50 mg b.i.d. Subjects who switch treatment at week 12 are handled as if they discontinued at week 12 for the purpose of statistical analysis, whereas subjects in the other groups will maintain their randomized treatment until Week 24.
The (DAS28(CRP)) is a system developed and validated by the European League Against Rheumatism (EULAR) to measure the progress and improvement of rheumatoid arthritis and has been extensively validated (Wells et al., 2008). The DAS28(CRP) scoring includes a 28 tender and swollen joint count, CRP measurement from blood analysis, and a general health assessment on a visual analog scale (Fransen et al., 2003).
DAS28(CRP) values range from 2.0 to 10.0, and more particularly reflect the following status: • Remission: DAS28(CRP)≤2.6 • Low Disease activity: 2.6<DAS28(CRP)≤3.2 • Moderate Disease Activity: 3.2<DAS28(CRP)≤5.1 • High Disease Activity: DAS28(CRP)>5.1
In practice, the DAS28(CRP) measurement involves the evaluation 28 different joints including in the measurement (proximal interphalangeal joints (10 joints), metacarpophalangeal joints (10), wrists (2), elbows (2), shoulders (2), and knees (2)). When looking at these joints, both the number of joints with tenderness upon touching and swelling are counted.
Firstly, the patient is asked to make a vertical mark on a 100 mm Visual Analog Scale (VAS) corresponding to their general health or global disease activity. Using an electronic touchscreen, the mark is measured from the left-hand side in mm to obtain the VAS value, which is used in the formula below.
Secondly, a swollen and tender joint examination is then performed on the patient. The swollen and tender joints are recorded. From this examination are obtained the total amount of swollen joints (SJC) and the total amount of tender joints (TJC), which are used in the formula below.
Thirdly, C-reactive protein (CRP) levels (in mg/dL) are measured.
Finally, the values obtained above (VAS, JTC28, SJC28, and CRP) are computed into the following Formula to obtain the DAS28(CRP) score.
The number of subjects (N) provided in each groups corresponds to the number of patients starting the study in each group, and the DAS28 (CRP) data reported below corresponds to the responding patients continuing for the entire 24 weeks on their initial treatment course.

Structure (SMILES): O=C(Nc1nc2cccc(-c3ccc(CN4CCS(=O)(=O)CC4)cc3)n2n1)C1CC1 [Compound 1, cyclopropanecarboxylic acid {5-[4-(1,1-dioxo-thiomorpholin-4-ylmethyl)-phenyl]-[1,2,4]triazolo[1,5-a]pyridin-2yl}-amide]
- LpA level, 4 weeks CFB (RA patients [1]; 30 mg q.d.): 3.9%
- LpA level, Baseline (RA patients [1]; 30 mg q.d.): 22.5 mg/dL
- LpA level, week 4 (RA patients [1]; 30 mg q.d.): 25.9 mg/dL
- LpA level, 4 weeks CFB (RA patients [1]; 75 mg q.d.): −3.7%
- LpA level, Baseline (RA patients [1]; 75 mg q.d.): 28.5 mg/dL
- LpA level, week 4 (RA patients [1]; 75 mg q.d.): 23.6 mg/dL
- LpA level, 4 weeks CFB (RA patients [1]; 150 mg q.d.): 7.0%
- LpA level, Baseline (RA patients [1]; 150 mg q.d.): 29.5 mg/dL
- LpA level, week 4 (RA patients [1]; 150 mg q.d.): 35 mg/dL
- LpA level, 4 weeks CFB (RA patients [1]; 300 mg q.d.): 4.4%
- LpA level, Baseline (RA patients [1]; 300 mg q.d.): 13.4 mg/dL
- LpA level, week 4 (RA patients [1]; 300 mg q.d.): 10.1 mg/dL
- DAS28(CRP) mean CFB (LOCF) - 24 weeks results (RA patients [2]; 50 mg q.d., Week 24): −1.98
- DAS28(CRP) mean CFB (LOCF) - 12 weeks results (RA patients [2]; 50 mg q.d., week 1): −0.65
- DAS28(CRP) mean CFB (LOCF) - 24 weeks results (RA patients [2]; 50 mg q.d., week 1): −0.65
- DAS28(CRP) mean CFB (LOCF) - 12 weeks results (RA patients [2]; 50 mg q.d., week 2): −0.94
- DAS28(CRP) mean CFB (LOCF) - 24 weeks results (RA patients [2]; 50 mg q.d., week 2): −0.94
- DAS28(CRP) mean CFB (LOCF) - 24 weeks results (RA patients [2]; 50 mg q.d., week 4): −1.28
- DAS28(CRP) mean CFB (LOCF) - 12 weeks results (RA patients [2]; 50 mg q.d., week 12): −1.75
- DAS28(CRP) mean CFB (LOCF) - 24 weeks results (RA patients [2]; 50 mg q.d., week 12): −1.75
- DAS28(CRP) mean CFB (LOCF) - 24 weeks results (RA patients [2]; 100 mg q.d., week 1): −1.00
- DAS28(CRP) mean CFB (LOCF) - 12 weeks results (RA patients [2]; 100 mg q.d., week 2): −1.50
- DAS28(CRP) mean CFB (LOCF) - 24 weeks results (RA patients [2]; 100 mg q.d., week 16): −2.51
- DAS28(CRP) mean CFB (LOCF) - 24 weeks results (RA patients [2]; 100 mg q.d., week 24): −2.70
- % patients reaching low disease activity and/or remission at week 24 (LOCF) (RA patients [2]; 200 mg q.d.): 52%
- DAS28(CRP) mean CFB (LOCF) - 24 weeks results (RA patients [2]; 200 mg q.d., week 1): −1.17
- DAS28(CRP) mean CFB (LOCF) - 24 weeks results (RA patients [2]; 200 mg q.d., week 2): −1.52
- DAS28(CRP) mean CFB (LOCF) - 12 weeks results (RA patients [2]; 200 mg q.d., week 8): −2.30
- DAS28(CRP) mean CFB (LOCF) - 24 weeks results (RA patients [2]; 200 mg q.d., week 16): −2.70
- DAS28(CRP) mean CFB (LOCF) - 24 weeks results (RA patients [2]; 200 mg q.d., week 24): −2.80
- % patients reaching low disease activity and/or remission at week 24 (LOCF) (RA patients [2]; 2 × 25 mg b.i.d.): 49%
- DAS28(CRP) mean CFB (LOCF) - 12 weeks results (RA patients [2]; 2 × 25 mg b.i.d., Week 1): −0.68
- DAS28(CRP) mean CFB (LOCF) - 24 weeks results (RA patients [2]; 2 × 25 mg b.i.d., Week 1): −0.68
- DAS28(CRP) mean CFB (LOCF) - 12 weeks results (RA patients [2]; 2 × 25 mg b.i.d., Week 4): −1.45
- DAS28(CRP) mean CFB (LOCF) - 24 weeks results (RA patients [2]; 2 × 25 mg b.i.d., Week 4): −1.45
- DAS28(CRP) mean CFB (LOCF) - 12 weeks results (RA patients [2]; 2 × 25 mg b.i.d., Week 8): −1.82
- DAS28(CRP) mean CFB (LOCF) - 24 weeks results (RA patients [2]; 2 × 25 mg b.i.d., Week 8): −1.82
- DAS28(CRP) mean CFB (LOCF) - 12 weeks results (RA patients [2]; 2 × 50 mg b.i.d., Week 1): −0.84
- DAS28(CRP) mean CFB (LOCF) - 24 weeks results (RA patients [2]; 2 × 50 mg b.i.d., Week 1): −0.84
- DAS28(CRP) mean CFB (LOCF) - 12 weeks results (RA patients [2]; 2 × 50 mg b.i.d., Week 12): −2.10
- DAS28(CRP) mean CFB (LOCF) - 24 weeks results (RA patients [2]; 2 × 50 mg b.i.d., Week 12): −2.10
- DAS28(CRP) mean CFB (LOCF) - 24 weeks results (RA patients [2]; 2 × 50 mg b.i.d., Week 20): −2.40
- DAS28(CRP) mean CFB (LOCF) - 24 weeks results (RA patients [2]; 2 × 50 mg b.i.d., Week 24): −2.40
- DAS28(CRP) mean CFB (LOCF) - 12 weeks results (RA patients [2]; 2 × 100 mg b.i.d., Week 8): −2.72
- DAS28(CRP) mean CFB (LOCF) - 24 weeks results (RA patients [2]; 2 × 100 mg b.i.d., Week 8): −2.72
